Measurements reported in patent US8865901B2, “Gain-of-function Bcl-2 inhibitors” (priority 2009, dated 2014).
Like-named read-outs stand apart in the source and are kept apart here.

Assays:
[1] = system: CFPAC-1, HPAF-II MIA PaCa, PaTu-1, PaTu-8988t, ASPC-1, FA-6, and PANC-1 cell lines; experiment: EC50 in a panel of pancreatic cell lines; type: cell-based; conditions: Homo sapiens; every pancreatic cell line of the panel, but for HPAF-II; FIG. 1
Description: The EC50 for the Compound 0216 (see structure above) was determined in a panel of pancreatic cell lines.
(§1) The panel included CFPAC-1, HPAF-II MIA PaCa, PaTu-1, PaTu-8988t, ASPC-1, FA-6, and PANC-1 cell lines. Pancreatic cancer samples were obtained from patients, with appropriate patient consent and approval of the Fred Hutchinson Cancer Research Center Institutional Review Board. Primary cells were maintained in Iscove's medium supplemented with 10% bovine calf serum, 100 ng·ml^−1 stem cell factor, and 50 ng·ml^−1 interleukin-3.
The EC50 values were measured with compound 216. […] This means that this molecule has a broad ability to induce apoptosis in a wide variety of pancreatic cancers.
as §1, with “institutional approval.” for “approval of the Fred Hutchinson Cancer Research Center Institutional Review Board.”
The EC50 values were measured with compound FH279.

[2] = system: TAMH cells overexpressing Bcl-xL (TAMH-Bcl-xL, Tabx2s); experiment: Cytotoxicity / apoptosis induction in TAMH cells overexpressing Bcl-xL; type: cell-based; conditions: for Neo:Bcl: ratio Neo to Bcl-xL cells
Description: (§2) To examine the sensitivity of cells over-expressing Bcl-xL to various mitochondrial inhibitors and apoptosis inducers, cell lines over-expressing Bcl-xL were prepared and tested according to Hockenberry et al. U.S. Pat. No. 7,241,804, hereby incorporated by reference in its entirety. Competitive binding of compounds with fluorescent antimycin A3, and competitive binding of compounds with BH3 peptide and Bcl-2. Competitive binding of compounds with BH-3 peptide were also measured using Bcl-xL as previously described. Id.
(§3) Cell lines were grown in RPMI 1640 medium (Gibco, Grand Island, N.Y.) supplemented with 5% fetal bovine serum (Hyclone, Logan, Utah). Also shown is the ratio of TAMH cells expressing Bcl-xL to those expressing A142L (WT:142L). The assay measures the potency of various compounds with respect to inducing apoptosis in these cells.
(§4) The compounds described in Example 2 were tested for their ability to inhibit Bcl-2 gain-of-function in TAMH cells, TAMH cells overexpressing […] (TAMH-Bcl-xL), TAMH cells transfected with Neo vector (Neo), TAMH cells over expressing a variant of Bcl-xL (A142L) using the methods of Example 1. 3-6.
(§5) The effects of the compounds described in Example 8 on TAMH cells, TAMH cells overexpressing Bcl-xL (TAMH-Bcl-xL), TAMH cells transfected with Neo vector (Neo), TAMH cells over expressing a variant of Bcl-xL (A142L) is shown in Table 8
(§6) The effects of the compounds described in Example 10 on TAMH cells, TAMH cells overexpressing Bcl-xL (TAMH-Bcl-xL), TAMH cells transfected with Neo vector (Neo), TAMH cells over expressing a variant of Bcl-xL (A142L) is shown in the following Table 10

[3] = system: TAMH cells transfected with Neo vector (Neo); experiment: Cytotoxicity / apoptosis induction in TAMH cells transfected with Neo vector; type: cell-based; conditions: TAMH Neo cells
Description: as §2, §3, §4, §5, §6

[4] = system: OVCAR-3, an ovarian tumor; experiment: Apoptosis induction against solid tumors in vitro, OVCAR-3; type: cell-based; conditions: Table 7
Description: (§7) The ability of compounds from Example 2 to induce apoptosis against solid tumors in vitro was tested. Four solid tumors were tested: OVCAR-3, an ovarian tumor; COLO205, a colonic tumor; HOP-62 and H23, both NSCLC tumors. The experimental compounds were compared to 2MeAA and to ABT-737, a clinical stage compound owned by Abbott Pharma.
(§8) The ability of compounds of Example 8 to induce apoptosis against solid tumors in vitro was tested. Four solid tumors were tested: OVCAR-3, an ovarian tumor; COLO205, a colonic tumor; HOP-62 and H23, both NSCLC tumors. The experimental compounds, […]

[5] = system: HOP-62, NSCLC tumor; experiment: Apoptosis induction against solid tumors in vitro, HOP-62; type: cell-based; conditions: Table 7
Description: as §7, §8

[6] = system: TAMH cells over expressing a variant of Bcl-xL (A142L); experiment: Cytotoxicity / apoptosis induction in TAMH cells over expressing Bcl-xL variant A142L; type: cell-based; conditions: Table 4; for EC50: TAMH A142L cells; for WT:142L: ratio of TAMH cells expressing Bcl-xL to those expressing A142L
Description: as §2, §3, §4

[7] = system: COLO205, a colonic tumor; experiment: Apoptosis induction against solid tumors in vitro, COLO205; type: cell-based; conditions: Table 7
Description: as §7, §8

[8] = system: H23, NSCLC tumor; experiment: Apoptosis induction against solid tumors in vitro, H23; type: cell-based; conditions: Table 7
Description: as §7, §8

[9] = system: Colo205 cells; experiment: Mouse colon carcinoma xenograft model; type: in vivo, NOD/Les2 SCID/J mice; conditions: daily intraperitoneal administration, single agent; FIG. 4
Description: The ability of the experimental compounds to inhibit tumor growth in a body was tested in a mouse colon carcinoma xenograft model.
(§9) Six to nine-week old NOD/Les2 SCID/J mice were inoculated with 3×10^7 Colo205 cells by interscapular subcutaneous injection. Mice were maintained under specific pathogen-free conditions. Palpable tumor nodules were measured in two dimensions with calipers and tumor volumes calculated in mm3 as (length×width^2)/2. Blood samples were collected by retro-orbital bleed for human light chain measurements by ELISA using lambda-specific antibody (BD Biosciences). Animals were sacrificed by halothane inhalation, and histologic examination of the tumors and internal organs was performed. All experiments were approved by the FHCRC Institutional Animal Care and Use Committee.
Animals were treated by daily intraperitoneal administration of Compound 0511 (see structure above in Example 2).
as §9, with “Animals were sacrificed by halothane inhalation, and histologic examination of the tumors and internal organs was performed. All experiments were approved by the FHCRC Institutional Animal Care and Use Committee.” left out

[10] = Table 4, TAMH-Bcl-xL cells, read-out: Bcl-xL

Row | Compound | EC50 [1] | EC50 ([2]; Mus musculus, Table 6, TAMH cells overexpressing Bcl-xL (Tabx2s), read-out: 2S EC50) | sensitivity to the apoptosis-inducing effects ([2]; TAMH cells overexpressing Bcl-xL compared to TAMH neo cells, FIG. 2) | EC50 ([3]; Mus musculus, Table 6, read-out: Neo EC50) | EC50 [2, 10] | Neo:Bcl ([2]; Table 4) | EC50 [4] | EC50 [5] | EC50 [6] | WT:142L [6] | EC50 [7] | EC50 [8] | EC50 ([3]; Table 4, read-out: Neo) | tumor growth [9]
1 | O=[N+]([O-])c1ccc(SCc2ccccc2)c2nonc12 [Compound 0216] | < 10 µM | 1.2 µM | more sensitive | 3.7 µM |  |  |  |  |  |  |  |  |  | 
2 | Oc1c(Cl)cc(Cl)cc1/C=N/Nc1ccc(C(F)(F)F)cn1 [Compound 0235] |  |  |  |  | 3.9 µM | 2.8 | 2.7 µM | 8.3 µM | 8.5 µM | 2.2 | 6.7 µM | 3.7 µM | 11 µM | 
3 | Oc1c(Br)cc(Cl)cc1/C=N/Nc1ccc(C(F)(F)F)cn1 [Compound 0239] |  |  |  |  | 4.3 µM | 4 | 4.2 µM | 19.1 µM | 13.3 µM | 3.1 | > 25 µM | 5.6 µM | 17.2 µM | 
4 | O=C1c2ccccc2C(=O)c2c1n[n+]([O-])n2CCCN1CCN(c2ccccn2)CC1 [Compound 0511] |  |  |  |  |  |  |  |  |  |  |  |  |  | effective in inhibiting tumor growth
